Assay results from ChEMBL document CHEMBL3352157, “1,2,4-triazolo[1,5-a]quinoxaline derivatives and their simplified analogues as adenosine A₃ receptor antagonists. Synthesis, structure-affinity relationships and molecular modeling studies” (Bioorg Med Chem, 2015).
The source made the active and inactive calls. The calls are words filed in the database; no cut-off is given here.

Key:
Adenosine receptor A3 = biological target: T1, Adenosine receptor A3 (Homo sapiens, UniProt P0DMS8); experiment: Displacement of [125I]AB-MECA from human adenosine A3 receptor expressed in CHO cells; format: cell-based
T1 sequence (P0DMS8 whole entry): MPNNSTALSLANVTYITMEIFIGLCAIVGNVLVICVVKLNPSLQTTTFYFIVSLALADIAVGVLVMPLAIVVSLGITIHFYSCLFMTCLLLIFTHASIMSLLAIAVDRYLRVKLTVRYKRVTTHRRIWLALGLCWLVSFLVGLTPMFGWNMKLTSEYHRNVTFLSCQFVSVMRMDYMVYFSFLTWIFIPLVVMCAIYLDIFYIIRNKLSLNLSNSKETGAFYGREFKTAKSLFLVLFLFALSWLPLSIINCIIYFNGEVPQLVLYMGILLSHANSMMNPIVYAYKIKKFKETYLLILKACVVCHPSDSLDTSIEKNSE

Adenosine receptor A1 = biological target: T2, Adenosine receptor A1 (Homo sapiens, UniProt P30542); experiment: Displacement of [3H]DPCPX from human adenosine A1 receptor expressed in CHO cells; format: cell-based
T2 sequence (P30542 whole entry): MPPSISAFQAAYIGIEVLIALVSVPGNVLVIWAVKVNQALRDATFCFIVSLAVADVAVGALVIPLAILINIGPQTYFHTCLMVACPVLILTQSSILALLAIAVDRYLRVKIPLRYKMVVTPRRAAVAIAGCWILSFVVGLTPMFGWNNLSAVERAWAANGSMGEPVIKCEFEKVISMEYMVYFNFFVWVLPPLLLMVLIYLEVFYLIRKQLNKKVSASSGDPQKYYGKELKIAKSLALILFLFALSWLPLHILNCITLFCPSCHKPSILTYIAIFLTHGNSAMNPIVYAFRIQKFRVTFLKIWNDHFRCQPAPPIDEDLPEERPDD

Adenosine receptor A2a [1] = biological target: T3, Adenosine receptor A2a (Homo sapiens, UniProt P29274); experiment: Displacement of [3H]NECA from human adenosine A2A receptor expressed in CHO cells at 10 uM; format: cell-based
T3 sequence (P29274 whole entry): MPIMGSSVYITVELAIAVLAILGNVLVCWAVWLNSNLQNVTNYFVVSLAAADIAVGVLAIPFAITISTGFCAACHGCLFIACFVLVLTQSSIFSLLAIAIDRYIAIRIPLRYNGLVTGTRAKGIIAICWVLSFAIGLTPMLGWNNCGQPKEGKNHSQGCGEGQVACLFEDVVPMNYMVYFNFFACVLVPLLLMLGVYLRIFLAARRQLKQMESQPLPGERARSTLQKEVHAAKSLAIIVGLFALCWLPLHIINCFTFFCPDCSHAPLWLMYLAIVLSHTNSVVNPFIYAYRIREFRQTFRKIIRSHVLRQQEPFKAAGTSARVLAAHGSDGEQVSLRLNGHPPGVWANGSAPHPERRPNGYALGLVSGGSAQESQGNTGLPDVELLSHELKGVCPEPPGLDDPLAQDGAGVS

[2] = biological target: T4, Adenosine receptor A2b (Homo sapiens) (UniProt P29275); experiment: Agonist activity at human recombinant adenosine A2B receptor expressed in CHO cells assessed as cAMP accumulation at 10 uM after 15 mins by liquid scintillation counting analysis; format: functional, cell-based
T4 sequence (whole entry): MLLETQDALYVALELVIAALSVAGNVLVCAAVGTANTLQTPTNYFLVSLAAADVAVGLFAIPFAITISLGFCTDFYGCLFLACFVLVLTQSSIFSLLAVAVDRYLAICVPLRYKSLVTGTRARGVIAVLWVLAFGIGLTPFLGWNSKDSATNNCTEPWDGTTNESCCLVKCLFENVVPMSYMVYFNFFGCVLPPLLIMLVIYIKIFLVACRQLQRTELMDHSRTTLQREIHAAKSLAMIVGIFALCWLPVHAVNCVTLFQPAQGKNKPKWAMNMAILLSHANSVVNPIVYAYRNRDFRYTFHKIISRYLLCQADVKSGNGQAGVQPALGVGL

[3] = biological target: T4, Adenosine receptor A2b (Homo sapiens); experiment: Antagonist activity at human recombinant adenosine A2B receptor expressed in CHO cells assessed as inhibition of NECA-induced cAMP accumulation measured as cAMP level at 10 uM incubated for 15 mins prior to NECA challenge measured after 30 mins by liquid scintillation counting analysis relative to control; format: functional, cell-based; design: scale not given: the % may be the effect or the level left
[4] = biological target: T5, Adenosine receptor A1 (Homo sapiens) (UniProt P30542); experiment: Displacement of [3H]DPCPX from human adenosine A1 receptor expressed in CHO cells at 10 uM; format: cell-based
T5 sequence (whole entry): T2 sequence (P30542 whole entry)

[5] = biological target: T6, Adenosine receptor A3 (Homo sapiens) (UniProt P0DMS8); experiment: Displacement of [125I]AB-MECA from human adenosine A3 receptor expressed in CHO cells at 1 uM; format: cell-based
T6 sequence (whole entry): T1 sequence (P0DMS8 whole entry)

Adenosine receptor A2a [6] = biological target: T3, Adenosine receptor A2a; experiment: Displacement of [3H]NECA from human adenosine A2A receptor expressed in CHO cells; format: cell-based

SMILES | Ki (Adenosine receptor A3) [nM] | Ki (Adenosine receptor A1) [nM] | inhibition (Adenosine receptor A2a [1]) [%] | Activity [2] | Activity [3] [%] | inhibition [4] [%] | inhibition [5] [%] | Ki (Adenosine receptor A2a [6]) [nM]
CCC(=O)N1Cc2nc(-c3ccccc3)nn2-c2cc(C)ccc21 | 6.5 | 134 | 33 | inactive | 68.6 | – | – | –
CCCOC(=O)N1Cc2nc(-c3ccccc3)nn2-c2cc(C)ccc21 | 171 | 565 | 56 | – | – | – | – | –
Clc1ccc2ncc3nc(-c4ccccc4)nn3c2c1 | 15.2 | 127 | 19 | – | – | – | – | –
CCC(=O)N1Cc2nc(-c3ccccc3)nn2-c2cc(Cl)ccc21 | 72 | – | 24 | inactive | 63.7 | 39 | – | –
COC(=O)N1Cc2nc(-c3ccccc3)nn2-c2ccccc21 | 245 | – | 50 | – | – | 34 | – | –
COc1ccc(-c2nc(N(C(=O)c3ccccc3)C(=O)c3ccccc3)n(-c3ccccc3)n2)cc1 | – | – | 13 | – | – | 55 | 44 | –
CCOC(=O)N1Cc2nc(-c3ccccc3)nn2-c2cc(Cl)ccc21 | 166 | – | – | – | – | – | – | –
CCOC(=O)N1Cc2nc(-c3ccccc3)nn2-c2ccccc21 | – | 4600 | 33 | – | – | – | 22 | –
CCC(=O)N1Cc2nc(-c3ccccc3)nn2-c2ccccc21 | – | 1360 | 52 | – | – | – | 55 | –
Cc1ccc2ncc3nc(-c4ccccc4)nn3c2c1 | 23.9 | 1320 | – | – | – | – | – | 2400
c1ccc(-c2nc3cnc4ccccc4n3n2)cc1 | 91.5 | – | – | – | – | – | – | –

Continued, values first:

Ki (Adenosine receptor A3) [nM] | Ki (Adenosine receptor A1) [nM] | inhibition (Adenosine receptor A2a [1]) [%] | Activity [2] | Activity [3] [%] | inhibition [4] [%] | inhibition [5] [%] | Ki (Adenosine receptor A2a [6]) [nM] | SMILES
23.3 | – | 13 | inactive | 109 | 49 | – | – | C#CCOC(=O)N1Cc2nc(-c3ccc(OC)cc3)nn2-c2cc(C)ccc21
31.9 | 1480 | 32 | inactive | 74.9 | – | – | – | COC(=O)N1Cc2nc(-c3ccccc3)nn2-c2cc(C)ccc21
54.8 | – | 0 | inactive | 89.5 | 39 | – | – | COc1ccc(-c2nc3n(n2)-c2cc(C)ccc2N(C(=O)Cc2ccccc2)C3)cc1
– | – | 1 | – | – | 44 | 45 | – | COc1ccc(-c2ncn(-c3cc(C)ccc3NC(=O)Cc3ccccc3)n2)cc1
– | – | 7 | – | – | 2 | 47 | – | COc1ccc(-c2ncn(-c3cc(C)ccc3NC(=O)OCc3ccccc3)n2)cc1
231 | – | 4 | – | – | 45 | – | – | COc1ccc(-c2nc3n(n2)-c2cc(C)ccc2N(C(=O)OCc2ccccc2)C3)cc1
25.1 | 1540 | 6 | inactive | 102 | – | – | – | CCC(=O)N1Cc2nc(-c3ccc(OC)cc3)nn2-c2cc(C)ccc21
12.5 | 556 | 9 | inactive | 104 | – | – | – | CCOC(=O)N1Cc2nc(-c3ccccc3)nn2-c2cc(C)ccc21
39.4 | 86 | 2 | – | – | – | – | – | CCOC(=O)N1Cc2nc(-c3ccc(OC)cc3)nn2-c2cc(C)ccc21
545 | – | 7 | – | – | 1 | – | – | COc1ccc(-c2nc(NC(=O)Nc3ccccc3)n(-c3ccccc3)n2)cc1
– | – | 4 | – | – | 26 | 19 | – | COc1ccc(-c2nc(N(C(C)=O)C(C)=O)n(-c3ccccc3)n2)cc1
– | – | 16 | – | – | – | 35 | – | C#CCOC(=O)Nc1ccc(C)cc1-n1cnc(-c2ccc(OC)cc2)n1
26.6 | 2020 | 30 | inactive | 42.6 | – | – | – | COc1ccc(-c2nc3cnc4ccc(C)cc4n3n2)cc1
– | – | 13 | – | – | 6 | 34 | – | CCOC(=O)Nc1ccc(C)cc1-n1cnc(-c2ccc(OC)cc2)n1
– | – | 43 | – | – | 25 | 50 | – | COc1ccc(-c2nc(NC(=O)c3ccccc3)n(-c3ccccc3)n2)cc1
